Laboratory results published in patent US6699681B2, “Endothelin converting enzymes and the amyloid β peptide” (Mayo Foundation for Medical Education and Research, priority 2000, dated 2004).
Entries after “also recorded” stand apart in the source; their conditions may differ.

What was measured:
HUVEC cells = test: Aβ accumulation in HUVEC cells treated with phosphoramidon; format: cell-based, human; details: high doses of phosphoramidon
Experimental: (§1) Human and guinea pig Aβ40 or Aβ42 was measured in plasma by sandwich ELISA as previously described (Suzuki et al., 1994, Science, 264:1336-1340) using the BAN-50/BA-27 or BAN-50/BC-05 antibody systems, respectively (Takeda; Japan). Hamster Aβ40- or Aβ42-derived from CHO cells was measured using the BNT-77/BA-27 or BNT-77/BC-05 antibody systems, respectively. Aβ concentration in samples was determined by comparison to synthetic Aβ40 or Aβ42 standards (Bachem, Switzerland). Data was obtained from triplicate wells.
(§2) In particular, the sandwich ELISA used herein was performed as follows: 96-well microtiter plates were coated overnight at 4° C. with 100 μl of a 5 μg/ml dilution of primary antibody in sodium carbonate coating buffer (SCCB; 0.1 M Na2CO3, pH 9.6). […] Plates were read at 450 nm in a SpectraMax Plus spectrophotometer (Molecular Devices; Sunnyvale, Calif.) and analyzed by SOFTmax® PRO software. Aβ40 or Aβ42 were quantitated by comparison with the values obtained for each synthetic Aβ standard from the same plate.
(§3) Cells were passaged into 6-well plates one day prior to treatment and grown to confluence. […] After treatment, the culture medium was harvested, spun at 14,000 xg, and the supernatant analyzed for Aβ40 or Aβ42 using sandwich ELISA and for secreted APP using Western blot. […]

H4 neuroglioma cells = test: Extracellular Aβ after treatment of H4 cells with metalloprotease inhibitors; format: cell-based, human
Experimental: as §1
In particular, the sandwich ELISA used herein was performed as follows: 96-well microtiter plates were coated overnight at 4° C. with 100 μl of a 5 μg/ml dilution of primary antibody in sodium carbonate coating buffer (SCCB; 0.1 M Na2CO3, pH 9.6). Plates were blocked overnight at 4° C. with 300 μl of BLOCKAGE Solution (PBS+1.0% BLOCKAGE (Snow Brand Milk Products, Japan), 0.05% NaN3, pH 7.4). Samples for analysis and synthetic Aβ standards (Bachem, Switzerland) were diluted in buffer EC (0.02 M NaH2PO4, 0.002 M EDTA, 0.4 M NaCl, 0.2% BSA, 0.05% CHAPS, 0.04% BLOCKAGE, 0.05% NaN3, pH 7.0) and allowed to incubate on the plates overnight at 4° C. Plates were washed twice with PBS (8 mM Na2HPO4, 1.5 mM KH2PO4, 139 mM NaCl, 2.7 mM KCl, pH 7.4) and 100 μl of secondary antibody directly coupled to HRP (EZ-LINK™ Plus Activated Peroxidase kit (contents of kit: peroxidase, 5 M sodium cyanoborohydride solution (NaBH3CN), quenching buffer (3 M ethanolamine, pH 9.0), BupH™ phosphate buffered saline, Buph™ carbonate-bicarbonate buffer), according to manufacturers directions; Pierce Chemical Co., Rockford, Ill.) was allowed to bind either 4 hrs at room temperature or overnight at 4° C. Plates were then washed twice with PBS containing 0.05% Tween 20 followed by two additional washes in PBS. Detection was performed using TMB (3,3′,5,5′-tetramethyl-benzidine) as an HRP substrate according to the manufacturer's specifications (Kirkegaard & Perry Laboratories (KPL), Gaithersburg, Md.) and the reaction stopped by the addition of 100 μl of 1N H3PO4. Plates were read at 450 nm in a SpectraMax Plus spectrophotometer (Molecular Devices; Sunnyvale, Calif.) and analyzed by SOFTmax® PRO software. Aβ40 or Aβ42 were quantitated by comparison with the values obtained for each synthetic Aβ standard from the same plate.
Cells were passaged into 6-well plates one day prior to treatment and grown to confluence. […] After treatment, the culture medium was harvested, spun at 14,000 xg, and the supernatant analyzed for Aβ40 or Aβ42 using sandwich ELISA and for secreted APP using Western blot. […] Bound antibody was detected by incubation with the appropriate HRP-linked secondary antibody (Amersham, Uppsala, Sweden) using ECL™ Western blotting reagents (Amersham) followed by exposure to X-ray film. […]

SolECE-1 = biological target: T1, SolECE-1 (Homo sapiens, UniProt P42892); test: Inhibition of Aβ degradation by SolECE-1, sandwich ELISA; format: biochemical; details: inhibitor pre-incubated 15 min; phosphoramidon 150 μM; 24 hrs at 37° C.
T1 construct: a recombinant soluble form of ECE was generated (SolECE-1); made in house
T1 sequence (P42892 90-770 limits assumed): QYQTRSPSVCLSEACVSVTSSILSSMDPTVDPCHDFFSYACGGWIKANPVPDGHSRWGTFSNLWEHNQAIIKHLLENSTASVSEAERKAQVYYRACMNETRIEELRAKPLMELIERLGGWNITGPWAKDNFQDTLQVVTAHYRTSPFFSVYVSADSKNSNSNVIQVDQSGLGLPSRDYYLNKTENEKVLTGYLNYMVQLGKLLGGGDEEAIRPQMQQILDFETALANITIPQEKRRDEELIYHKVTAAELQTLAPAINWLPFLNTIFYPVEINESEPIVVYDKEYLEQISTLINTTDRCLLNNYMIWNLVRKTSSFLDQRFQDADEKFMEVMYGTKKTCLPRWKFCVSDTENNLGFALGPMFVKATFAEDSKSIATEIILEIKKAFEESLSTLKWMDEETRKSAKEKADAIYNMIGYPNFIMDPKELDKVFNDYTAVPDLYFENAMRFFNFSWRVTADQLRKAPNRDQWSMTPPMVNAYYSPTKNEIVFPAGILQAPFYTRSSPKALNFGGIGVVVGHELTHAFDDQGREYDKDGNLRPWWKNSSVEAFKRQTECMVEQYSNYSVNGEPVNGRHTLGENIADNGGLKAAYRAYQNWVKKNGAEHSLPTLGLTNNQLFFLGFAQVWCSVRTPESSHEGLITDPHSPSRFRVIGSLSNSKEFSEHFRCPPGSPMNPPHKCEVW
Experimental: SolECE-1 (approximately 0.2 μM) was pre-incubated for 15 min at room temperature with the ECE inhibitors PD069185 (synthesized according to published methods (Ahn et al., 1998, Biochem. Biophys. Res. Comm., 243:184-190) by the Mayo Clinic Organic Chemistry Core Facility, Jacksonville, Fla.) or phosphoramidon (150 μM), or an equal volume of vehicle (DMSO or PBS, respectively) prior to incubation with synthetic Aβ40 or Aβ42 (0.01 μM) in 50 mM MES (pH 6.5) containing 0.01% C12E10, 1 mM PMSF, 100 μM leupeptin, and 20 μM pepstatin. As a control, Aβ was incubated with Ni-NTA purified proteins from non-transfected CHO cells, or in reaction buffer alone. Following incubation for 24 hrs at 37° C., the reactions were stopped by the addition of 5 mM EDTA. Aβ concentration was then analyzed using a highly specific sandwich ELISA that captures Aβ via binding of antibody BAN-50 to the N-terminus, and detects only full-length Aβ peptides ending at residue 40 (using antibody BA-27) or 42 (using antibody BC-05). Thus, Aβ that has been further hydrolyzed will not be detected using this assay.

CHO cells = test: Aβ in conditioned medium of CHO cells (lack ECE activity) treated with phosphoramidon; format: cell-based, hamster; details: non-transfected CHO cells; high concentrations of phosphoramidon
Experimental: as §1, §2, §3

Compound: CC(C)C[C@H](NP(=O)(O)O[C@@H]1O[C@@H](C)[C@H](O)[C@@H](O)[C@H]1O)C(=O)N[C@@H](Cc1c[nH]c2ccccc12)C(=O)O [phosphoramidon]
- Aβ accumulation (HUVEC cells): virtually undetectable levels of Aβ accumulation unless treated with high doses of phosphoramidon
- Aβ accumulation in parallel culture wells without synthetic Aβ (H4 neuroglioma cells; H4 cells, parallel to the spiking experiment): promoting Aβ accumulation
- extracellular Aβ accumulation (H4 neuroglioma cells; H4 neuroglioma cells, thiorphan or captopril at concentrations greater than 1000-times the reported IC50 for the target enzymes): significant elevation
- block of the SolECE-1-induced reduction of Aβ40 and Aβ42 (SolECE-1): completely blocked
- concentration of Aβ in the conditioned medium (CHO cells): did not affect; also recorded: unaffected
